Columns and labels:
Format in all cases: in vivo
[1] = tested on: barnyardgrass (Echinochloa crus-galli); assay: Test A preemergence, barnyardgrass; conditions: Preemergence; for Plant response rating, Barnyardgrass: 0 to 100 scale (0 no effect, 100 complete control)
How it was run: (§1)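 Directed soil spray at planting gave the preemergence treatment, while foliar application to one- to two-leaf seedlings (2–10 cm) gave the postemergence one; pots held a loam and sand mixture and chemicals were carried in a non-phytotoxic solvent with surfactant.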

kochia (Bassia scoparia) [2] = assay: Test A preemergence, kochia; conditions: Preemergence; for Plant response rating, Kochia: 0 to 100 scale (0 no effect, 100 complete control)
How it was run: as §1

[3] = tested on: ragweed (common ragweed, Ambrosia artemisiifolia); assay: Test A preemergence, ragweed; conditions: Preemergence; for Plant response rating, Ragweed: 0 to 100 scale (0 no effect, 100 complete control)
How it was run: as §1

[4] = tested on: Ryegrass, Italian (Italian ryegrass, Lolium multiflorum); assay: Test A preemergence, Ryegrass, Italian; conditions: Preemergence; for Plant response rating, Ryegrass, Italian: 0 to 100 scale (0 no effect, 100 complete control)
How it was run: as §1

[5] = tested on: Foxtail, Giant (giant foxtail, Setaria faberi); assay: Test A preemergence, Foxtail, Giant; conditions: Preemergence; for Plant response rating, Foxtail, Giant: 0 to 100 scale (0 no effect, 100 complete control)
How it was run: as §1

[6] = tested on: pigweed (Amaranthus retroflexus); assay: Test A preemergence, pigweed; conditions: for Plant response rating, Pigweed: 0 to 100 scale (0 no effect, 100 complete control)
How it was run: (§2)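 Barnyardgrass, wheat and galium were treated postemergence at the one- to two-leaf stage (2 to 10 cm) with chemicals formulated in non-phytotoxic solvent plus surfactant, grown in loam soil–sand pots. Pigweed was sown in the same blend and given a preemergence directed soil spray.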

[7] = tested on: barnyardgrass (Echinochloa crus-galli); assay: Test A postemergence, barnyardgrass; conditions: Postemergence, 0 to 100 scale (0 no effect, 100 complete control); for Plant response rating, Barnyardgrass: 125 g ai/ha; for Barnyardgrass plant response rating: 500 g ai/ha, visual injury vs untreated controls after approx. 10 days
How it was run: as §2

kochia (Bassia scoparia) [8] = assay: Test A postemergence, kochia; conditions: Postemergence, 0 to 100 scale (0 no effect, 100 complete control); for Plant response rating, Kochia: 125 g ai/ha; for Kochia plant response rating: 500 g ai/ha, visual injury vs untreated controls after approx. 10 days
How it was run: as §1

[9] = tested on: ragweed (common ragweed, Ambrosia artemisiifolia); assay: Test A postemergence, ragweed; conditions: Postemergence, 0 to 100 scale (0 no effect, 100 complete control); for Plant response rating, Ragweed: 125 g ai/ha; for Ragweed plant response rating: 500 g ai/ha, visual injury vs untreated controls after approx. 10 days
How it was run: as §1

[10] = tested on: Ryegrass, Italian (Italian ryegrass, Lolium multiflorum); assay: Test A postemergence, Ryegrass, Italian; conditions: Postemergence, 0 to 100 scale (0 no effect, 100 complete control); for Plant response rating, Ryegrass, Italian: 125 g ai/ha; for Ryegrass, Italian plant response rating: 500 g ai/ha, visual injury vs untreated controls after approx. 10 days
How it was run: as §1

[11] = tested on: Foxtail, Giant (giant foxtail, Setaria faberi); assay: Test A postemergence, Foxtail, Giant; conditions: Postemergence, 0 to 100 scale (0 no effect, 100 complete control); for Plant response rating, Foxtail, Giant: 125 g ai/ha; for Foxtail, Giant plant response rating: 500 g ai/ha, visual injury vs untreated controls after approx. 10 days
How it was run: as §1

[12] = tested on: pigweed (Amaranthus retroflexus); assay: Test A postemergence, pigweed; conditions: Postemergence, 0 to 100 scale (0 no effect, 100 complete control); for Plant response rating, Pigweed: 125 g ai/ha; for Pigweed plant response rating: 500 g ai/ha, visual injury vs untreated controls after approx. 10 days
How it was run: as §1

[13] = tested on: wheat (Triticum aestivum); assay: Test A postemergence, wheat; conditions: Postemergence, 0 to 100 scale (0 no effect, 100 complete control); for Plant response rating, Wheat: 125 g ai/ha; for Wheat plant response rating: 500 g ai/ha, visual injury vs untreated controls after approx. 10 days
How it was run: as §2

corn (Zea mays) = assay: Test A postemergence, corn; conditions: Postemergence, 0 to 100 scale (0 no effect, 100 complete control); for Plant response rating, Corn: 125 g ai/ha; for Corn plant response rating: 500 g ai/ha, visual injury vs untreated controls after approx. 10 days
How it was run: as §1

[14] = tested on: blackgrass (Alopecurus myosuroides); assay: Test A postemergence, blackgrass; conditions: Postemergence, 0 to 100 scale (0 no effect, 100 complete control); for Plant response rating, Blackgrass: 125 g ai/ha; for Blackgrass plant response rating: 500 g ai/ha, visual injury vs untreated controls after approx. 10 days
How it was run: as §1

[15] = tested on: galium (catchweed bedstraw, Galium aparine); assay: Test A postemergence, galium; conditions: Postemergence, 0 to 100 scale (0 no effect, 100 complete control); for Plant response rating, Galium: 125 g ai/ha; for Galium plant response rating: 500 g ai/ha, visual injury vs untreated controls after approx. 10 days
How it was run: as §2

[16] = 125 g ai/ha, visual injury, approx. 10 days
[17] = 125 g ai/ha, visual injury on 0 to 100 scale (0 no effect, 100 complete control), approximately 10 days

With `Cc1cc(Cl)c(N(S(=O)(=O)C(F)(F)F)S(=O)(=O)C(F)(F)F)cc1C1=NOC2(CCCCC2)C1` [Compound 217] the “Plant response rating, Barnyardgrass” value [1, 16] was 90, the “Plant response rating, Barnyardgrass” value ([1]; 500 g ai/ha) was 100 and the “Plant response rating, Kochia” value (kochia (Bassia scoparia) [2]; [16]) was 70. The “Plant response rating, Kochia” value (kochia (Bassia scoparia) [2]; 500 g ai/ha) was 90, the “Plant response rating, Ragweed” value [3, 16] was 60 and the “Plant response rating, Ragweed” value ([3]; 500 g ai/ha) was 90. The “Plant response rating, Ryegrass, Italian” value [4, 16] was 80, the “Plant response rating, Ryegrass, Italian” value ([4]; 500 g ai/ha) was 100 and the “Plant response rating, Foxtail, Giant” value [5, 16] was 90. The “Plant response rating, Foxtail, Giant” value ([5]; 500 g ai/ha) was 100, the “Plant response rating, Pigweed” value [6, 16] was 70 and the “Plant response rating, Pigweed” value ([6]; 500 g ai/ha) was 100. For the same compound, the “Plant response rating, Barnyardgrass” value [7] was 0, the “Barnyardgrass plant response rating” value [7] was 30 and the “Plant response rating, Kochia” value (kochia (Bassia scoparia) [8]) was 50. The “Kochia plant response rating” value (kochia (Bassia scoparia) [8]) was 70, the “Plant response rating, Ragweed” value [9] was 60 and the “Ragweed plant response rating” value [9] was 70. For the same compound, the “Plant response rating, Ryegrass, Italian” value [10] was 0, the “Ryegrass, Italian plant response rating” value [10] was 0 and the “Plant response rating, Foxtail, Giant” value [11] was 0. For the same compound, the “Foxtail, Giant plant response rating” value [11] was 0, the “Plant response rating, Pigweed” value [12] was 40 and the “Pigweed plant response rating” value [12] was 80. The “Plant response rating, Wheat” value [13] was 0, the “Wheat plant response rating” value [13] was 30 and the “Plant response rating, Corn” value (corn (Zea mays)) was 0. The “Corn plant response rating” value (corn (Zea mays)) was 20, the “Plant response rating, Blackgrass” value [14] was 0 and the “Blackgrass plant response rating” value [14] was 20. The “Plant response rating, Galium” value [15] was 80 and the “Galium plant response rating” value [15] was 90.
`Cc1cc(C)c(N(S(=O)(=O)C(F)(F)F)S(=O)(=O)C(F)(F)F)cc1-c1cc(C(C)C)nn(C)c1=O` [Compound 47] was tested, and the “Barnyardgrass plant response rating” value [1, 17] was 50, the “Plant response rating, Barnyardgrass” value ([1]; 500 g ai/ha) was 90 and the “Kochia plant response rating” value (kochia (Bassia scoparia) [2]; [17]) was 0. For the same compound, the “Plant response rating, Kochia” value (kochia (Bassia scoparia) [2]; 500 g ai/ha) was 0, the “Ragweed plant response rating” value [3, 17] was 20 and the “Plant response rating, Ragweed” value ([3]; 500 g ai/ha) was 60. For the same compound, the “Ryegrass, Italian plant response rating” value [4, 17] was 50, the “Plant response rating, Ryegrass, Italian” value ([4]; 500 g ai/ha) was 100 and the “Foxtail, Giant plant response rating” value [5, 17] was 10. For the same compound, the “Plant response rating, Foxtail, Giant” value ([5]; 500 g ai/ha) was 90, the “Pigweed plant response rating” value [6, 17] was 0 and the “Plant response rating, Pigweed” value ([6]; 500 g ai/ha) was 0. The “Plant response rating, Barnyardgrass” value ([7]; visual injury approx. 10 days) was 50, the “Barnyardgrass plant response rating” value [7] was 80 and the “Plant response rating, Kochia” value (kochia (Bassia scoparia) [8]; visual injury approx. 10 days) was 0. The “Kochia plant response rating” value (kochia (Bassia scoparia) [8]) was 0, the “Plant response rating, Ragweed” value ([9]; visual injury approx. 10 days) was 70 and the “Ragweed plant response rating” value [9] was 80. For the same compound, the “Plant response rating, Ryegrass, Italian” value ([10]; visual injury approx. 10 days) was 40, the “Ryegrass, Italian plant response rating” value [10] was 80 and the “Plant response rating, Foxtail, Giant” value ([11]; visual injury approx. 10 days) was 40. For the same compound, the “Foxtail, Giant plant response rating” value [11] was 80, the “Plant response rating, Pigweed” value ([12]; visual injury approx. 10 days) was 0 and the “Pigweed plant response rating” value [12] was 0. The “Plant response rating, Wheat” value ([13]; visual injury approx. 10 days) was 50, the “Wheat plant response rating” value [13] was 60 and the “Plant response rating, Corn” value (corn (Zea mays); visual injury approx. 10 days) was 10. For the same compound, the “Corn plant response rating” value (corn (Zea mays)) was 0, the “Plant response rating, Blackgrass” value ([14]; visual injury approx. 10 days) was 10 and the “Blackgrass plant response rating” value [14] was 50. The “Plant response rating, Galium” value ([15]; visual injury approx. 10 days) was 30 and the “Galium plant response rating” value [15] was 40.
For `Cc1cc(C)c(-n2nccc(C)c2=O)cc1NS(=O)(=O)C(F)(F)F` [Compound 84], the “Plant response rating, Barnyardgrass” value ([1]; 500 g ai/ha) was 80, the “Plant response rating, Kochia” value (kochia (Bassia scoparia) [2]; 500 g ai/ha) was 70 and the “Plant response rating, Ragweed” value ([3]; 500 g ai/ha) was 0. For the same compound, the “Plant response rating, Ryegrass, Italian” value ([4]; 500 g ai/ha) was 90, the “Plant response rating, Foxtail, Giant” value ([5]; 500 g ai/ha) was 90 and the “Plant response rating, Pigweed” value ([6]; 500 g ai/ha) was 70. The “Barnyardgrass plant response rating” value [7] was 80, the “Kochia plant response rating” value (kochia (Bassia scoparia) [8]) was 0 and the “Ragweed plant response rating” value [9] was 40. The “Ryegrass, Italian plant response rating” value [10] was 50, the “Foxtail, Giant plant response rating” value [11] was 50 and the “Pigweed plant response rating” value [12] was 30. For the same compound, the “Wheat plant response rating” value [13] was 70, the “Corn plant response rating” value (corn (Zea mays)) was 60 and the “Blackgrass plant response rating” value [14] was 20. For the same compound, the “Galium plant response rating” value [15] was 50.

Reference: patent US20230278972A1, “SUBSTITUTED HALOALKYL SULFONANILIDE HERBICIDES” (FMC Corporation, priority 2020, published 2023)
